biological target: LRRK2 (Homo sapiens (Human), UniProt Q5S007, G2019S); assay: In Vitro LRRK2 LabChip Assay; format: biochemical; conditions: Table 6
Method in brief: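 Phosphorylated and unphosphorylated peptides were separated by capillary electrophoresis and quantified by fluorescence. Ki came from a tight-binding equation, given in μM.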

LRRK2, sequence (Q5S007 970-2527 G2019S limits assumed): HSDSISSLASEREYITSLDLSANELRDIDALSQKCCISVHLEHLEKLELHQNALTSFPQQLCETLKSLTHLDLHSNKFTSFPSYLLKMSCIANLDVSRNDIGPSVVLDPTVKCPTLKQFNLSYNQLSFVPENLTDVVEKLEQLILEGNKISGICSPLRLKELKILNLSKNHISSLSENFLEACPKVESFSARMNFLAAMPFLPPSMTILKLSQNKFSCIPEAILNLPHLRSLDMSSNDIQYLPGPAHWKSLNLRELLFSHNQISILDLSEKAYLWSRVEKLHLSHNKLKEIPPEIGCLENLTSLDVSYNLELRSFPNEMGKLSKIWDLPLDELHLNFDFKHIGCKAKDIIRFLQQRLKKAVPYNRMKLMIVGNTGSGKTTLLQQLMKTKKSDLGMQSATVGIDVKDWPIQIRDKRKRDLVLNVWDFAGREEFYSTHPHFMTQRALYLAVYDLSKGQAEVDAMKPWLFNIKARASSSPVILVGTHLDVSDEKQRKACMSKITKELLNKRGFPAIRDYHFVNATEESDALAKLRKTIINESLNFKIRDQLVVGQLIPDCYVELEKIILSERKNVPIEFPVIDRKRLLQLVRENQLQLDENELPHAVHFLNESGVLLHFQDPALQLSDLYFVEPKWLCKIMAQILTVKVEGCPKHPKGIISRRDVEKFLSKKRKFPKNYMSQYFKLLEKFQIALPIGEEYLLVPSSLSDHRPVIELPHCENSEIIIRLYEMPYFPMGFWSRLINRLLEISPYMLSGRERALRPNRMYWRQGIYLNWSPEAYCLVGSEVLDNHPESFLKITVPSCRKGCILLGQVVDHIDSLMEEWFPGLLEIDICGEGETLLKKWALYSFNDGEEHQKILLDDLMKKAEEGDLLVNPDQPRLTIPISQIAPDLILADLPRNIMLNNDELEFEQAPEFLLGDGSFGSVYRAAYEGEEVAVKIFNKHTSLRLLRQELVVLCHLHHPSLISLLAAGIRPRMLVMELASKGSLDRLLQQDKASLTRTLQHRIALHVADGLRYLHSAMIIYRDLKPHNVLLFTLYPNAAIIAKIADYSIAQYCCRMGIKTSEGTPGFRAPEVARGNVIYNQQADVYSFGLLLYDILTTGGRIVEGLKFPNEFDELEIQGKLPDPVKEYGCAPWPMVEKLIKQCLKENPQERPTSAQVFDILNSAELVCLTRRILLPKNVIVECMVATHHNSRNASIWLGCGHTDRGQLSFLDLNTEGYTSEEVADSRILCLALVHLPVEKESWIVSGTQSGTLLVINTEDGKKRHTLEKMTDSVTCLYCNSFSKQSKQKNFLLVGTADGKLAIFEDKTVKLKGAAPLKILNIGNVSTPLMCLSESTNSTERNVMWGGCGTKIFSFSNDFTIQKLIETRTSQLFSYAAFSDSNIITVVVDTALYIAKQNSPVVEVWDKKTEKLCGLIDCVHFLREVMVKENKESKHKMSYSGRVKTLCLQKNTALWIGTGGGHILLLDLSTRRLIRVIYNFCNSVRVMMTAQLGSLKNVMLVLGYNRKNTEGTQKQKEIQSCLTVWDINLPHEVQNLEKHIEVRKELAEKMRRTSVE

SMILES	Ki
COc1cc(C(=O)N2CCOCC2)ccc1Nc1ncc(C(F)(F)F)c(N2CCCC2)n1 [Example 268, [3-Methoxy-4-(4-pyrrolidin-1-yl-5-trifluoromethyl-pyrimidin-2-ylamino)-phenyl]-morpholin-4-yl-methanone]	19 nM
CNc1nc(Nc2ccc(C(=O)N3CCOCC3)cc2OC2CCC2)ncc1C(F)(F)F [Example 269, [3-Cyclobutoxy-4-(4-methylamino-5-trifluoromethyl-pyrimidin-2-ylamino)-phenyl]-morpholin-4-yl-methanone]	2.5 nM
CNc1nc(Nc2ccc(C(=O)NC3COC3)cc2OC)ncc1C(F)(F)F [Example 271, 3-Methoxy-4-(4-methylamino-5-trifluoromethyl-pyrimidin-2-ylamino)-N-oxetan-3-yl-benzamide]	3.7 nM
CNc1nc(Nc2ccc(C(=O)N3CC4CCC(C3)O4)cc2OC)ncc1C(F)(F)F [Example 272, [3-Methoxy-4-(4-methylamino-5-trifluoromethyl-pyrimidin-2-ylamino)-phenyl]-(8-oxa-3-aza-bicyclo[3.2.1]oct-3-yl)-methanone]	1.7 nM
CNc1nc(Nc2ccc(C(=O)N3CCCC3)cc2OC)ncc1C(F)(F)F [Example 274, [3-Methoxy-4-(4-methylamino-5-trifluoromethyl-pyrimidin-2-ylamino)-phenyl]-pyrrolidin-1-yl-methanone]	4.1 nM
CCN(CC)C(=O)c1ccc(Nc2ncc(C(F)(F)F)c(NC)n2)c(OC)c1 [Example 275, N,N-Diethyl-3-methoxy-4-(4-methylamino-5-trifluoromethyl-pyrimidin-2-ylamino)-benzamide]	3.3 nM
CNc1nc(Nc2ccc(C(=O)N3CCC(N(C)C)CC3)cc2OC)ncc1C(F)(F)F [Example 276, (4-Dimethylamino-piperidin-1-yl)-[3-methoxy-4-(4-methylamino-5-trifluoromethyl-pyrimidin-2-ylamino)-phenyl]-methanone]	0.8 nM
CNc1nc(Nc2ccc(C(=O)N3CC(C)OC(C)C3)cc2OC)ncc1C(F)(F)F (stereo not drawn) [Example 277, (2,6-Dimethyl-morpholin-4-yl)-[3-methoxy-4-(4-methylamino-5-trifluoromethyl-pyrimidin-2-ylamino)-phenyl]-methanone]	4.9 nM
CNc1nc(Nc2ccc(C(=O)N3CCC(C#N)CC3)cc2OC)ncc1C(F)(F)F [Example 278, 1-[3-Methoxy-4-(4-methylamino-5-trifluoromethyl-pyrimidin-2-ylamino)-benzoyl]-piperidine-4-carbonitrile]	1.7 nM
CNc1nc(Nc2ccc(C(=O)N3CCN(CC(F)(F)F)CC3)cc2OC)ncc1C(F)(F)F [Example 279, [3-Methoxy-4-(4-methylamino-5-trifluoromethyl-pyrimidin-2-ylamino)-phenyl]-[4-(2,2,2-trifluoro-ethyl)-piperazin-1-yl]-methanone]	2 nM
CNc1nc(Nc2ccc(C(=O)N3CCC(OC)CC3)cc2OC)ncc1C(F)(F)F [Example 280, [3-Methoxy-4-(4-methylamino-5-trifluoromethyl-pyrimidin-2-ylamino)-phenyl]-(4-methoxy-piperidin-1-yl)-methanone]	1.6 nM
CNc1nc(Nc2ccc(C(=O)NCCOC)cc2OC)ncc1C(F)(F)F [Example 281, 3-Methoxy-N-(2-methoxy-ethyl)-4-(4-methylamino-5-trifluoromethyl-pyrimidin-2-ylamino)-benzamide]	2.3 nM
CNc1nc(Nc2ccc(C(=O)NC3CCN(C)CC3)cc2OC)ncc1C(F)(F)F [Example 282, 3-Methoxy-4-(4-methylamino-5-trifluoromethyl-pyrimidin-2-ylamino)-N-(1-methyl-piperidin-4-yl)-benzamide]	0.6 nM
CNc1nc(Nc2ccc(C(=O)NC3CCC(F)(F)CC3)cc2OC)ncc1C(F)(F)F [Example 283, N-(4,4-Difluoro-cyclohexyl)-3-methoxy-4-(4-methylamino-5-trifluoromethyl-pyrimidin-2-ylamino)-benzamide]	1.1 nM
CNc1nc(Nc2ccc(C(=O)N3CCOCC3)cc2OC2COC2)ncc1Cl [Example 284, [4-(5-Chloro-4-methylamino-pyrimidin-2-ylamino)-3-(oxetan-3-yloxy)-phenyl]-morpholin-4-yl-methanone]	12.8 nM
CNc1nc(Nc2ccc(C(=O)N3CCOCC3)cc2OCC2CC2)ncc1C(F)(F)F [Example 285, [3-Cyclopropyl-methoxy-4-(4-methylamino-5-trifluoromethyl-pyrimidin-2-ylamino)-phenyl]-morpholin-4-yl-methanone]	6.5 nM
CNc1nc(Nc2ccc(C(=O)N3CCOCC3)cc2OCC2CCC2)ncc1C(F)(F)F [Example 286, [3-Cyclobutyl-methoxy-4-(4-methylamino-5-trifluoromethyl-pyrimidin-2-ylamino)-phenyl]-morpholin-4-yl-methanone]	5.2 nM
CNc1nc(Nc2cc(OC)c(C(=O)N3CCOCC3)cc2Cl)ncc1Br [Example 288, [4-(5-Bromo-4-methylamino-pyrimidin-2-ylamino)-5-chloro-2-methoxy-phenyl]-morpholin-4-yl-methanone]	2.6 nM

SMILES	Ki
CNc1nc(Nc2ccc(C(=O)N3CCOCC3)cc2C2CC2)ncc1C(F)(F)F [Example 289, [3-Cyclopropyl-4-(4-methylamino-5-trifluoromethyl-pyrimidin-2-ylamino)-phenyl]-morpholin-4-yl-methanone]	20 nM
CNc1nc(Nc2ccc(C(=O)N3CCOCC3)cc2Br)ncc1C(F)(F)F [Example 290, [3-Bromo-4-(4-methylamino-5-trifluoromethyl-pyrimidin-2-ylamino)-phenyl]-morpholin-4-yl-methanone]	7.5 nM
CNc1nc(Nc2ccc(C(=O)N3CCOCC3)cc2Cl)ncc1C(F)(F)F [Example 291, [3-Chloro-4-(4-methylamino-5-trifluoromethyl-pyrimidin-2-ylamino)-phenyl]-morpholin-4-yl-methanone]	17 nM
CNc1nc(Nc2cc(Cl)c(C(=O)N3CCOCC3)cc2OC)ncc1C(F)(F)F [Example 292, [2-Chloro-5-methoxy-4-(4-methylamino-5-trifluoromethyl-pyrimidin-2-ylamino)-phenyl]-morpholin-4-yl-methanone]	2 nM
CNc1nc(Nc2cc(Cl)c(C(=O)N3CCOCC3)cc2OC)ncc1Cl [Example 293, [2-Chloro-4-(5-chloro-4-methylamino-pyrimidin-2-ylamino)-5-methoxy-phenyl]-morpholin-4-yl-methanone]	2.7 nM
COc1cc(C(=O)N2CCOCC2)c(Cl)cc1Nc1ncc(Br)c(OC)n1 [Example 294, [4-(5-Bromo-4-methoxy-pyrimidin-2-ylamino)-2-chloro-5-methoxy-phenyl]-morpholin-4-yl-methanone]	9.4 nM
CNc1nc(Nc2cc(OC)c(C(=O)N3CCOCC3)cc2Cl)ncc1Cl [Example 295, (5-chloro-4-(5-chloro-4-(methyl-amino)pyrimidin-2-ylamino)-2-methoxy-phenyl)(morpholino) methanone]	6 nM
CNc1nc(Nc2cc(OC)c(C(=O)N3CCOCC3)cc2Cl)ncc1C(F)(F)F [Example 296, [5-Chloro-2-methoxy-4-(4-methylamino-5-trifluoromethyl-pyrimidin-2-ylamino)-phenyl]-morpholin-4-yl-methanone]	2 nM
CNc1nc(Nc2ccc(C(=O)N3CCOCC3)c(F)c2OC)ncc1C(F)(F)F [Example 297, [2-Fluoro-3-methoxy-4-(4-methylamino-5-trifluoromethyl-pyrimidin-2-ylamino)-phenyl]-morpholin-4-yl-methanone]	14.5 nM
CNc1nc(Nc2ccc(C(=O)N3CCOCC3)cc2OCCF)ncc1C(F)(F)F [Example 298, [3-(2-Fluoro-ethoxy)-4-(4-methylamino-5-trifluoromethyl-pyrimidin-2-ylamino)-phenyl]-morpholin-4-yl-methanone]	2.4 nM
COc1cc(C(=O)N2CCCC2)ccc1Nc1ncc(Cl)c(OC)n1 [Example 299, (4-(5-chloro-4-methoxypyrimidin-2-ylamino)-3-methoxyphenyl) (pyrrolidin-1-yl)methanone]	6 nM
CCOc1cc(C(=O)N2CCOCC2)c(F)cc1Nc1ncc(C(F)(F)F)c(NC)n1 [Example 300, [5-Ethoxy-2-fluoro-4-(4-methylamino-5-trifluoromethyl-pyrimidin-2-ylamino)-phenyl]-morpholin-4-yl-methanone]	9 nM
CNc1nc(Nc2ccc(C(=O)N(C)CCOC)cc2OC)ncc1C(F)(F)F [Example 301, 3-Methoxy-N-(2-methoxy-ethyl)-N-methyl-4-(4-methylamino-5-trifluoromethyl-pyrimidin-2-ylamino)-benzamide]	5.1 nM
CCNc1nc(Nc2ccc(C(=O)N(C)CCOC)cc2OC)ncc1C(F)(F)F [Example 302, 4-(4-Ethylamino-5-trifluoromethyl-pyrimidin-2-ylamino)-3-methoxy-N-(2-methoxy-ethyl)-N-methyl-benzamide]	2.3 nM
CNc1nc(Nc2cc(F)c(C(=O)N(C)CCOC)cc2OC)ncc1C(F)(F)F [Example 303, 2-Fluoro-5-methoxy-N-(2-methoxy-ethyl)-N-methyl-4-(4-methylamino-5-trifluoromethyl-pyrimidin-2-ylamino)-benzamide]	5.9 nM
CCNc1nc(Nc2cc(F)c(C(=O)N(C)CCOC)cc2OC)ncc1C(F)(F)F [Example 304, 4-(4-Ethylamino-5-trifluoromethyl-pyrimidin-2-ylamino)-2-fluoro-5-methoxy-N-(2-methoxy-ethyl)-N-methyl-benzamide]	1.6 nM
CNc1nc(Nc2cc(F)c(C(=O)N3CCC[C@H]3COC)cc2OC)ncc1C(F)(F)F [Example 305, [2-Fluoro-5-methoxy-4-(4-methylamino-5-trifluoromethyl-pyrimidin-2-ylamino)-phenyl]-((S)-2-methoxymethyl-pyrrolidin-1-yl)-methanone]	3 nM
CCNc1nc(Nc2cc(F)c(C(=O)N3CCC[C@H]3COC)cc2OC)ncc1C(F)(F)F [Example 306, [4-(4-Ethylamino-5-trifluoromethyl-pyrimidin-2-ylamino)-2-fluoro-5-methoxy-phenyl]-((S)-2-methoxymethyl-pyrrolidin-1-yl)-methanone]	0.6 nM

— patent publication US8802674B2, “Aminopyrimidine derivatives as LRRK2 modulators” (Genentech, Inc., priority 2011, dated 2014)
